These are literature values, as cited in patent US20230111190A1, “ORAL COMPOSITIONS WITH IMPROVED BIOAVAILABILITY AND METHODS OF MAKING THE SAME” (Nulixir Inc., priority 2021, published 2023).

As a reminder, the logP is a log measure of how a compound divides between an organic and an aqueous phase.

Test system in the first data set: not given
As to conditions: one study estimated.
In the case of `COc1ccc2cc3[n+](cc2c1OC)CCc1cc2c(cc1-3)OCO2` [berberine], the “affected by first-pass digestion” value is listed as 43%; the “bioavailability lost to hepatic metabolism” value is on record as “minimal amount”; the “not absorbed and eliminated via feces” value is 56%.

Test system in a further data set: not given
As to conditions: in vivo.
Consider `CCCCCCCC/C=C\CCCCCCCC(=O)O` [oleic acid], for which the “absorbed via the lymphatic system” value is 85% and the “absorbed via the portal vein” value is given as 15%.

Test system in a further data set: not given
As to conditions: dependence on water content.
In the case of `COc1ccc2cc3[n+](cc2c1OC)CCc1cc2c(cc1-3)OCO2` [berberine], the solubility in ethanol result was “decreases rapidly with water content”.

The next data set deals with many strains of fungi.
Settings: not given
Regarding `O=CC=Cc1ccccc1` [Cinnamaldehyde], the antifungal inhibitory activity entry is reported as “strong inhibitory activity”.

Test system in another data set: not given
As to conditions: n-octanol and water; categorization at pH = 7 unless stated otherwise.
With `COc1cc2c(c(OC)c1OC)-c1c(cc3c(c1OC)OCO3)CC(C)C(C)C2` (single isomer, unassigned; (-)) [(-)-schisandrin B], the logP was ~4.

Regarding `COc1cc(/C=C/c2ccccc2)oc(=O)c1` [5,6-dehydrokawain], the logP is ~2.9.

Turning to `COC1=CC(=O)OC(/C=C/c2ccc(OC)cc2)C1` (centres unmarked) [5,6-dihydroyangonin], the logP is ~2.5.

For `N[C@@H](Cc1c[nH]c2ccc(O)cc12)C(=O)O` [5-HTP, 5-hydroxytryptophan], the logP is ~-2.

For the compound `CC1=C(CO)C(=O)O[C@@H]([C@@H](C)[C@H]2CC[C@H]3[C@@H]4C[C@H](Cl)[C@]5(O)[C@@H](O)C=CC(=O)[C@]5(C)[C@H]4CC[C@]23C)C1` [6a-chloro-5b-hydroxywithaferin A], the logP is recorded as ~3.2.

Turning to `COC1=CC(=O)O[C@@H](CCc2ccc3c(c2)OCO3)C1` [7,8-dihydromethysticin], the logP is given as ~2.2.

`COc1ccc(CCc2cc(OC)cc(=O)o2)cc1` [7,8-dihydroyangonin]: the logP is ~2.9.

For the compound `COc1cc(/C=C\c2ccc(OC)c(O)c2)oc(=O)c1` [11-hydroxyyangonin], the logP was ~2.2.

As to `COc1cc2c(c(OC)c1OC)-c1c(cc(OC)c(OC)c1OC)C[C@](C)(O)[C@@H](C)C2` [(+)-schisandrin], the logP is ~5.

With `COc1cc2c(c(OC)c1OC)-c1c(cc(OC)c(OC)c1OC)C[C@H](C)[C@H](C)C2` [(-)-schisandrin A], the log partition coefficient (logP) was ~3.6.

`O=C(/C=C/c1ccccc1)N1CCCC1` [(E)-1-cinnamoylpyrrolidine]: the logP is ~2.2.

Consider `NCCCC(=O)O` [GABA, gamma-aminobutyric acid], for which the log partition coefficient (logP) was ~-3.

With `N[C@@H](Cc1ccccc1)C(=O)O` [L-phenylalanine], the logP is given as ~-1.38.

`CCNC(=O)CC[C@H](N)C(=O)O` [L-theanine]: the logP is recorded as ~-3.

For the compound `O=C(O)c1cc(C(=O)O)c2c(n1)C(=O)C(=O)c1cc(C(=O)O)[nH]c1-2` [PQQ, pyrroloquinoline quinone], the logP is reported as ~0.4.

Regarding `CC(/C=C/C=C(\C)C(=O)O[C@@H]1O[C@H](CO[C@@H]2O[C@H](CO)[C@@H](O)[C@H](O)[C@H]2O)[C@@H](O)[C@H](O)[C@H]1O)=C\C=C\C=C(C)\C=C\C=C(/C)C(=O)O[C@@H]1O[C@H](CO[C@@H]2O[C@H](CO)[C@@H](O)[C@H](O)[C@H]2O)[C@@H](O)[C@H](O)[C@H]1O` [alpha-crocin], the logP was ~-1.5.

As for `CC(C)=C[C@@H]1CO[C@]23C[C@]4(CO2)[C@H](CC[C@@H]2[C@@]5(C)CC[C@H](O[C@@H]6OC[C@H](O)[C@H](O[C@@H]7O[C@H](CO)[C@@H](O)[C@H](O)[C@H]7O)[C@H]6O[C@@H]6O[C@@H](CO)[C@H](O)[C@H]6O)C(C)(C)[C@@H]5CC[C@]24C)[C@H]3[C@@]1(C)O` [bacopasaponin C], the logP is reported as ~2.

Regarding `CC(C)=C[C@H]1C[C@](C)(O)[C@@H]2[C@H]3CC[C@@H]4[C@@]5(C)CC[C@H](O[C@@H]6OC[C@H](O)[C@H](O[C@@H]7O[C@H](CO)[C@@H](O)[C@H](O)[C@H]7O)[C@H]6O[C@@H]6O[C@@H](CO)[C@H](O)[C@H]6O)C(C)(C)[C@@H]5CC[C@@]4(C)[C@@]34CO[C@@]2(C4)O1` [bacopaside X], the logP is recorded as ~2.2.

Consider `CC(C)=C[C@H]1C[C@](C)(O)[C@H]2[C@H]3CC[C@@H]4[C@@]5(C)CC[C@H](O[C@@H]6O[C@H](CO)[C@@H](O)[C@H](O[C@@H]7O[C@H](CO)[C@@H](O)[C@H](O)[C@H]7O)[C@H]6O[C@@H]6O[C@@H](CO)[C@H](O)[C@H]6O)C(C)(C)[C@@H]5CC[C@@]4(C)[C@@]34CO[C@@]2(C4)O1` [bacoside A3], for which the logP is reported as ~2.1.

For `CC(C)=CCC[C@](C)(O[C@@H]1O[C@H](CO[C@@H]2O[C@H](CO)[C@@H](O)[C@H](O)[C@H]2O)[C@@H](O)[C@H](O)[C@H]1O)[C@H]1CC[C@]2(C)[C@@H]1[C@H](O)C[C@@H]1[C@@]3(C)CC[C@H](O[C@@H]4O[C@H](CO)[C@@H](O)[C@H](O)[C@H]4O[C@@H]4O[C@H](CO)[C@@H](O)[C@H](O)[C@H]4O)C(C)(C)[C@@H]3CC[C@]12C` [ginsenoside rb1], the logP was ~-1.

With `CC(C)=CCC[C@](C)(O[C@@H]1O[C@H](CO)[C@@H](O)[C@H](O)[C@H]1O)[C@H]1CC[C@]2(C)[C@@H]1[C@H](O)C[C@@H]1[C@@]3(C)CC[C@H](O)C(C)(C)[C@@H]3[C@@H](O[C@@H]3O[C@H](CO)[C@@H](O)[C@H](O)[C@H]3O)C[C@]12C` [ginsenoside rg1], the logP is listed as ~0.8.

As for `COc1cc(O)c2c(=O)c(OC)c(-c3ccc(O)cc3)oc2c1` [kumatakenin], the logP is on record as ~2.5.

`COc1ccc(C23C=CC(O)CC2N(C)CC3)cc1OC` (centres unmarked) [mesembrenol]: the logP is given as ~2.4.

With `COc1ccc([C@@]23C=CC(=O)C[C@@H]2N(C)CC3)cc1OC` [mesembrenone], the logP is listed as ~1.3.

`COc1ccc([C@@]23CCC(=O)C[C@@H]2N(C)CC3)cc1OC` [mesembrine]: the logP is listed as ~1.5.

On to `COc1nc2c(c(=O)n1C)n(C)c(=O)n2C` [methylliberine], for which the logP is reported as ~-0.083.

Regarding `CC(=O)OC1C=CC(=O)N(C(=O)CCc2ccccc2)C1` (centres unmarked) [pipermethystine], the logP is recorded as ~1.8.

On to `COc1cc([C@H]2Oc3cc(O)c4c(=O)c(O)c(-c5ccc(O)cc5)oc4c3O[C@@H]2CO)ccc1O` [rhodiolin], for which the logP was ~2.

As to `COc1cc2c(c(OC)c1OC)-c1c(cc(OC)c(OC)c1OC)C[C@](C)(O)[C@@H](C)C2` [schisandrol A], the logP was ~3.4.

On to `N#C[C@@]1(O[C@@H]2O[C@H](CO)[C@@H](O)[C@H](O)[C@H]2O)C=C[C@@H](O)C1` [tetraphyllin B], for which the logP was ~-2.5.

As to `Cn1c(=O)c2c(n(C)c1=O)n(C)c(=O)n2C` [theacrine], the logP is on record as ~-1.06.

For the compound `Cn1cnc2c1c(=O)[nH]c(=O)n2C` [theobromine], the logP is ~-0.78.

As for `COc1ccc(/C=C/c2cc(OC)cc(=O)o2)cc1` [yangonin], the logP was ~2.8.

Regarding (-)-schisandrin C, the logP was ~3.5.

Turning to (R)-kawain, the logP was ~2.7.

On to bacopaside B, for which the logP is ~2.8.

hericerin: the logP is reported as ~6.4.

With herinacine A, the logP was ~2.5.

For the compound schisandroside C, the logP is reported as ~1.6.

Consider tortuosomine, for which the logP is recorded as ~3.
